Data taken from PMC6023887, “GTP-binding facilitates EB1 recruitment onto microtubules by relieving its auto-inhibition” (Scientific Reports, 2018).
Residue numbers refer to the chain shown, from its start. In names and notes the source's numbering stands. Each block holds one molecule with its values, some of them ahead of it.

Tests used:
[1] = biological target: T1, full length EB1 (His-tagged) (Homo sapiens, UniProt Q15691); test: isothermal titration calorimetry; type: binding; conditions: 80 mM PIPES, 1 mM EGTA, 1 mM MgCl2, pH 6.9, 25 °C; N fixed at 2; range over three experiments, printed jointly for EB1n and full length; saturation incomplete
T1 construct: gene MAPRE1; full length 268 residues, His-tagged, recombinant, purified as in authors' earlier work; dimer
T1 sequence (Q15691 1-268): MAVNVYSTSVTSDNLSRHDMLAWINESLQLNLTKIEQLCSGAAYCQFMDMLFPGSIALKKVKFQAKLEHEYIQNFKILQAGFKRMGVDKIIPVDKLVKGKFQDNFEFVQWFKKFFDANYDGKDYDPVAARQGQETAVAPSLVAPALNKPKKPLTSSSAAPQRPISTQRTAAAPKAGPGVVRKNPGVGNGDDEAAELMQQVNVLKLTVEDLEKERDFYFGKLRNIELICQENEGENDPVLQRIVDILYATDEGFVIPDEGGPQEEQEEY

[2] = biological target: T2, EB1n (EB1 N-terminus, residues 1-151) (Homo sapiens, UniProt Q15691); test: isothermal titration calorimetry; type: binding; conditions: 80 mM PIPES, 1 mM EGTA, 1 mM MgCl2, pH 6.9, 25 °C; N fitted freely; range over three experiments, printed jointly for EB1n and full length; noisy data; NMR in other buffers gives mM Kd
T2 construct: gene MAPRE1; N-terminal fragment 1-151 containing CH domain (1-130); pET3d, E. coli BL21(DE3), untagged, cation exchange; mainly monomer
T2 sequence (Q15691 1-151): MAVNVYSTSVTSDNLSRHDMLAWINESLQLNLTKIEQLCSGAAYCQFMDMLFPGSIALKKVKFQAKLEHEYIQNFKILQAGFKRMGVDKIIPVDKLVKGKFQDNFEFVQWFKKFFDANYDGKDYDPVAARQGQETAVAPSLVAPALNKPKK

[3] = biological target: Rhodamine labeled microtubules polymerized with GTPγS (UniProt P02550 1-451, rhodamine on part of the tubulin (3 µM rhodamine-labeled tubulin with 40 µM tubulin)); which chain carries it is not stated | rhodamine on part of the tubulin (3 µM rhodamine-labeled tubulin with 40 …); test: confocal fluorescence imaging of purified EB1-GFP on microtubules held on coverslips; rhodamine microtubules (GTPγS) on poly-lysine coverslips, washed free of GTPγS; 10 µM EB1-GFP protein added, 10 min, 37 °C, BRB80 pH 6.9; fixed with 1% glutaraldehyde; GFP intensity per pixel along microtubules; conditions: both partners purified
[4] = biological target: Microtubules polymerized from tubulin with GTPγS (UniProt P02550 1-451); test: binding to microtubules held on coverslips, wash, SDS-PAGE of the bound protein; microtubules (40 µM tubulin, GTPγS) on poly-lysine coverslips, washed; 10 µM EB1-GFP protein added, 10 min at 37 °C (15 min in the legend), BRB80; unbound protein washed off; Coomassie bands normalized against tubulin; the paper calls it sedimentation; conditions: both partners purified

Kd [1]: ~10 to ~30 µM
Kd [2]: ~10 to ~30 µM
Molecule: Nc1nc2c(ncn2[C@@H]2O[C@H](COP(=O)(O)OP(=O)(O)OP(=O)(O)O)[C@@H](O)[C@H]2O)c(=O)[nH]1 [GTP]

fold increase of GFP intensity per pixel on microtubules against wild-type EB1-GFP [3]: ~2 fold
fold amount bound to microtubules against wild-type EB1 [4]: ~1.5 fold
B1: EB1 R17A H18A-GFP (natural protein, human, UniProt Q15691 1-268, looked up)
chain: T1 sequence (Q15691 1-268) with R17A, H18A
notes: EB1, human, full-length cDNA with R17A and H18A; Made with the WT EB1-GFP pET22b eGFP plasmid as template; also called R17A H18A EB1-GFP; mutant EB1-GFP; source: E. coli BL21 (DE3), purified (Ni-NTA)
